Source: ChEMBL document CHEMBL1201862, “PubChem BioAssay data set” (2004)
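Cultured in 96-well plates, cells were exposed to test compound for 48 hours across five concentrations. The concentration for 50% growth inhibition is given as GI50.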 Calls of active or inactive are those of the source. Rule as the data show it: active = GI50 up to about 1.1 µM and inactive = higher.

Assays:
Assay in all cases: NCI tumour cell line growth inhibition, 48 h
A549 = test system: A549
MDA-N = test system: MDA-N
PC-3 = test system: PC-3
LOX IMVI = test system: LOX IMVI
SK-MEL-2 = test system: SK-MEL-2
MCF7 = test system: MCF7
SNB-19 = test system: SNB-19
M14 = test system: M14
EKVX = test system: EKVX
UACC-62 = test system: UACC-62
COLO 205 = test system: COLO 205
MDA-MB-231 = test system: MDA-MB-231
SNB-75 = test system: SNB-75
SF-295 = test system: SF-295
HCC 2998 = test system: HCC 2998
Malme-3M = test system: Malme-3M
IGROV-1 = test system: IGROV-1
HL-60 = test system: HL-60

Measured: GI50

COc1ccc(N2C(=O)/C(=C\c3ccccc3)SC2c2cc(OC)c(OC)c(OC)c2)cc1 (configuration not stated)
inactive: A549 > 100 µM | MDA-N 16.9 µM | PC-3 39.2 µM | LOX IMVI 56.9 µM | SK-MEL-2 30.4 µM | MCF7 38.4 µM | SNB-19 > 100 µM | M14 28.5 µM | EKVX 15 µM | UACC-62 52.5 µM | COLO 205 74.1 µM | MDA-MB-231 88.5 µM | SNB-75 8.05 µM | SF-295 > 100 µM | HCC 2998 > 100 µM | Malme-3M > 100 µM

COc1c(O)cc2c(c1O)C(=O)/C(=C/c1ccc(O)cc1)CO2
inactive: A549 31 µM | IGROV-1 24.7 µM | MDA-N 28.7 µM | PC-3 43 µM | LOX IMVI 21.7 µM | SK-MEL-2 27 µM | MCF7 34.7 µM | SNB-19 30.8 µM | HL-60 30.1 µM | M14 28.1 µM | EKVX 28.8 µM | UACC-62 19.2 µM | COLO 205 17.6 µM | MDA-MB-231 40.2 µM | SNB-75 21.2 µM | SF-295 37.7 µM | Malme-3M 30.2 µM

Cc1ccc(C2=Nn3c(nc4sc(-c5ccccc5)cc4c3=O)SC2)cc1
inactive: A549 > 100 µM | IGROV-1 > 100 µM | MDA-N > 100 µM | PC-3 > 100 µM | LOX IMVI > 100 µM | MCF7 > 100 µM | HL-60 > 100 µM | EKVX > 100 µM | UACC-62 > 100 µM | COLO 205 > 100 µM | MDA-MB-231 > 100 µM | SNB-75 > 100 µM | SF-295 > 100 µM | HCC 2998 > 100 µM | Malme-3M > 100 µM

N[C@@H]1C[C@H](N)c2c(Cl)sc(Cl)c21
inactive: A549 > 100 µM | IGROV-1 > 100 µM | MDA-N > 100 µM | PC-3 > 100 µM | LOX IMVI > 100 µM | SK-MEL-2 > 100 µM | MCF7 > 100 µM | SNB-19 > 100 µM | M14 > 100 µM | EKVX > 100 µM | UACC-62 > 100 µM | COLO 205 > 100 µM | MDA-MB-231 > 100 µM | SNB-75 > 100 µM | SF-295 > 100 µM | HCC 2998 > 100 µM

CCCCN1C(=O)CS/C1=N/Nc1nc2c([nH]1)c(=O)n(C)c(=O)n2C
inactive: A549 > 100 µM | IGROV-1 > 100 µM | MDA-N 14.6 µM | PC-3 > 100 µM | SK-MEL-2 30 µM | MCF7 13.7 µM | SNB-19 37.8 µM | HL-60 > 100 µM | M14 28.5 µM | EKVX > 100 µM | UACC-62 86.5 µM | COLO 205 > 100 µM | MDA-MB-231 29 µM | SF-295 7.35 µM | HCC 2998 > 100 µM | Malme-3M 38.8 µM

CC(=O)NCCC1CN(C(=O)/C=C\C#C[Si](C)(C)C)c2ccccc21 (configuration not stated)
inactive: A549 27.5 µM | IGROV-1 14.1 µM | MDA-N 13.5 µM | PC-3 27 µM | LOX IMVI 11.9 µM | SK-MEL-2 14 µM | MCF7 5.36 µM | SNB-19 26.3 µM | HL-60 23.3 µM | M14 13.3 µM | EKVX 14.8 µM | UACC-62 8.49 µM | COLO 205 4.88 µM | MDA-MB-231 17.3 µM | SF-295 21.5 µM | HCC 2998 20.1 µM | Malme-3M 13.1 µM

O=c1[nH]c2ccsc2c(=O)n1COCc1ccccc1
inactive: A549 > 100 µM | IGROV-1 > 100 µM | MDA-N > 100 µM | PC-3 > 100 µM | LOX IMVI > 100 µM | SK-MEL-2 > 100 µM | MCF7 > 100 µM | SNB-19 > 100 µM | HL-60 > 100 µM | M14 > 100 µM | EKVX > 100 µM | COLO 205 > 100 µM | MDA-MB-231 > 100 µM | SNB-75 > 100 µM | SF-295 > 100 µM | HCC 2998 > 100 µM | Malme-3M > 100 µM

COC(=O)C1=C(O)C(C(=O)OC)C2CC(=O)CC1C2(C)C (configuration not stated)
inactive: A549 > 100 µM | IGROV-1 > 100 µM | MDA-N > 100 µM | PC-3 > 100 µM | SK-MEL-2 > 100 µM | MCF7 > 100 µM | SNB-19 > 100 µM | HL-60 > 100 µM | M14 > 100 µM | EKVX > 100 µM | UACC-62 > 100 µM | COLO 205 > 100 µM | MDA-MB-231 > 100 µM | SNB-75 88.9 µM | SF-295 > 100 µM | HCC 2998 > 100 µM | Malme-3M > 100 µM

CC1OC2OC3C(OCC(O)C3O)OC(=O)[C@]34CCC(C)(C)CC3C3=CCC5[C@@]6(C)C[C@H](O)[C@H](OC7OC(CO)C(O)C(O)C7OC7OCC(OC(=O)CC(C)(O)CC(=O)OC1C(O)C2O)C(O)C7O)[C@@](C)(CO)C6CC[C@@]5(C)[C@]3(C)CC4 (some centres not stated)
inactive: A549 2.24 µM | IGROV-1 5.71 µM | MDA-N 4.05 µM | PC-3 2.17 µM | LOX IMVI 9.86 µM | SK-MEL-2 7.91 µM | MCF7 13 µM | SNB-19 6.22 µM | HL-60 1.82 µM | M14 2.82 µM | UACC-62 4.3 µM | COLO 205 1.89 µM | MDA-MB-231 9.23 µM | SNB-75 5.64 µM | SF-295 3.42 µM | HCC 2998 2.43 µM | Malme-3M 3.68 µM

CN(C)CCNC(=O)c1cccc2c(NCC(=O)O)c3ccccc3nc12
inactive: A549 7.85 µM | IGROV-1 8.51 µM | MDA-N 14 µM | PC-3 10.5 µM | LOX IMVI 4.97 µM | SK-MEL-2 16.7 µM | MCF7 3.79 µM | SNB-19 6.49 µM | HL-60 > 100 µM | M14 17 µM | EKVX 10.6 µM | UACC-62 15.1 µM | COLO 205 5.21 µM | MDA-MB-231 14.7 µM | SNB-75 17.6 µM | SF-295 10.9 µM | Malme-3M 11 µM

CCOC(=O)/C(=C\c1ccnc2ccccc12)P(=O)(OCC)OCC
inactive: A549 5.31 µM | IGROV-1 1.6 µM | MDA-N 2.3 µM | PC-3 5.53 µM | LOX IMVI 1.57 µM | SK-MEL-2 2.06 µM | MCF7 1.4 µM | SNB-19 3.65 µM | M14 1.93 µM | EKVX 4.65 µM | UACC-62 2.65 µM | COLO 205 2.17 µM | MDA-MB-231 2.11 µM | SNB-75 3.49 µM | SF-295 2.99 µM | HCC 2998 12.9 µM | Malme-3M 1.33 µM

COC(=O)C1Cc2c(OC)ccc(OC)c2C(O)C1C(=O)OC (configuration not stated)
inactive: A549 > 100 µM | IGROV-1 > 100 µM | MDA-N > 100 µM | PC-3 > 100 µM | LOX IMVI > 100 µM | SK-MEL-2 > 100 µM | MCF7 > 100 µM | SNB-19 > 100 µM | HL-60 > 100 µM | M14 > 100 µM | EKVX > 100 µM | UACC-62 > 100 µM | COLO 205 > 100 µM | MDA-MB-231 > 100 µM | SNB-75 > 100 µM | SF-295 > 100 µM | Malme-3M > 100 µM

CCOC(=O)Cc1csc2[n+]1C(=O)/C(=C/c1cccc(OC)c1O)S2
inactive: A549 67.5 µM | IGROV-1 45.4 µM | MDA-N 40.1 µM | PC-3 40.8 µM | LOX IMVI 51.8 µM | SK-MEL-2 45 µM | MCF7 45.3 µM | SNB-19 50.9 µM | HL-60 45.8 µM | M14 77.6 µM | EKVX 74.1 µM | UACC-62 97.7 µM | COLO 205 78.5 µM | MDA-MB-231 51.5 µM | SNB-75 18.7 µM | SF-295 73.5 µM | HCC 2998 32.2 µM

CN(/N=C/c1ccc(OCc2cccc(COc3ccc(C=O)cc3)n2)cc1)c1cnn(-c2ccc(Cl)cc2Cl)c(=O)c1Cl
inactive: A549 > 100 µM | IGROV-1 62.5 µM | MDA-N > 100 µM | PC-3 > 100 µM | LOX IMVI 88.1 µM | SK-MEL-2 33 µM | MCF7 > 100 µM | SNB-19 50.7 µM | HL-60 > 100 µM | M14 > 100 µM | EKVX 16 µM | UACC-62 > 100 µM | COLO 205 > 100 µM | MDA-MB-231 20.7 µM | SNB-75 11.4 µM | SF-295 20.2 µM | HCC 2998 > 100 µM | Malme-3M 84.1 µM

C#C/C=C\CCCC/C=C\C#CC#CCCCC#CC#C[C@H](COS(=O)(=O)O)OS(=O)(=O)O
inactive: A549 > 100 µM | IGROV-1 > 100 µM | MDA-N > 100 µM | PC-3 > 100 µM | LOX IMVI > 100 µM | SK-MEL-2 > 100 µM | MCF7 > 100 µM | SNB-19 > 100 µM | HL-60 > 100 µM | M14 > 100 µM | EKVX > 100 µM | UACC-62 > 100 µM | COLO 205 > 100 µM | MDA-MB-231 > 100 µM | SNB-75 33 µM | SF-295 > 100 µM | HCC 2998 > 100 µM

CS(=O)(=O)N1CC(CCl)c2ccc(O)cc21 (configuration not stated)
inactive: A549 3.19 µM | IGROV-1 2.07 µM | MDA-N 1.52 µM | PC-3 2.17 µM | LOX IMVI 3.57 µM | SK-MEL-2 2.94 µM | MCF7 1.98 µM | HL-60 1.57 µM | EKVX 5.31 µM | UACC-62 4.17 µM | COLO 205 1.9 µM | MDA-MB-231 2.2 µM | SNB-75 2.71 µM | SF-295 2.95 µM | HCC 2998 1.95 µM | Malme-3M 2.19 µM
